Results as given in EP0726263A2, “Herbicidal (1,3,4)oxadiazoles and thiadiazoles” (American Cyanamid Company, priority 1995, dated 1996).

What was measured:
Format in all cases: in vivo
Abutilon theophrasti [1] = experiment: Herbicidal activity, preemergence test; details: pre; sprayed onto soil, 800 g of active material per hectare; evaluated 3 weeks after treatment
Description: (§1) To evaluate their herbicidal activity, compounds according to the invention are tested using a representative range of plants: TRZAW Triticum aestivum HORVW Hordeum vulgare ZEAMX Zea mays GOSHI Gossypium hirsutum HELAN Helianthus annuus GLYMA Glycine max ALOMY Alopecurus myosuroides SETVI Setaria viridis ECHCG Echinochloa crus-galli GALAP Galium aparine STEME Stellaria media VERPE Veronica persica VIOAR Viola arvensis IPOHE Ipomoea hederacea LAMPU Lamium purpureum PAPRH Papaver rhoeas MATIN Matricaria inodora AMARE Amaranthus retroflexus ABUTH Abutilon theophrasti AMBEL Ambrosia artemisifolia CHEAL Chenopodium album
(§2) The tests fall into two categories, preemergence and postemergence. The preemergence tests involve spraying a liquid formulation of the compound onto the soil in which the seeds have recently been sown. The postemergence tests involve spraying a liquid formulation of the compound onto seedling plants.
(§3) The soil used in the tests is a prepared horticultural loam.
(§4) The formulations used in the tests are prepared from solutions of the test compounds in acetone containing 0.4% by weight of an alkylphenol/ethylene oxide condensate available under the trade mark TRITON X-155. These acetone solutions are diluted with water and the resulting formulations applied at dosage levels corresponding to 800 g of active material per hectare in a volume equivalent to 900 litres per hectare.
(§5) In the preemergence tests untreated sown soil and in the postemergence tests untreated soil bearing seedling plants are used as controls.
(§6) Results of herbicide evaluation are expressed on a rating scale (0-9). The scale is based upon a visual observation of plant stand, vigor, malformation, size, chlorosis, and general plant appearance as compared to a control. Preemergence and postemergence treatments are evaluated at 3 and 2 weeks after treatment, respectively.

Alopecurus myosuroides [2] = experiment: Herbicidal activity, preemergence test; details: pre; sprayed onto soil, 800 g of active material per hectare; evaluated 3 weeks after treatment
Description: as §1, §2, §3, §4, §5, §6

Amaranthus retroflexus [3] = experiment: Herbicidal activity, preemergence test; details: pre; sprayed onto soil, 800 g of active material per hectare; evaluated 3 weeks after treatment
Description: as §1, §2, §3, §4, §5, §6

Ambrosia artemisifolia [4] = experiment: Herbicidal activity, preemergence test; details: pre; sprayed onto soil, 800 g of active material per hectare; evaluated 3 weeks after treatment
Description: as §1, §2, §3, §4, §5, §6

Chenopodium album [5] = experiment: Herbicidal activity, preemergence test; details: pre; sprayed onto soil, 800 g of active material per hectare; evaluated 3 weeks after treatment
Description: as §1, §2, §3, §4, §5, §6

Galium aparine [6] = experiment: Herbicidal activity, preemergence test; details: pre; sprayed onto soil, 800 g of active material per hectare; evaluated 3 weeks after treatment
Description: as §1, §2, §3, §4, §5, §6

Glycine max [7] = experiment: Herbicidal activity, preemergence test; details: pre; sprayed onto soil, 800 g of active material per hectare; evaluated 3 weeks after treatment
Description: as §1, §2, §3, §4, §5, §6

Gossypium hirsutum [8] = experiment: Herbicidal activity, preemergence test; details: pre; sprayed onto soil, 800 g of active material per hectare; evaluated 3 weeks after treatment
Description: as §1, §2, §3, §4, §5, §6

Hordeum vulgare [9] = experiment: Herbicidal activity, preemergence test; details: pre; sprayed onto soil, 800 g of active material per hectare; evaluated 3 weeks after treatment
Description: as §1, §2, §3, §4, §5, §6

Ipomoea hederacea [10] = experiment: Herbicidal activity, preemergence test; details: pre; sprayed onto soil, 800 g of active material per hectare; evaluated 3 weeks after treatment
Description: as §1, §2, §3, §4, §5, §6

Lamium purpureum [11] = experiment: Herbicidal activity, preemergence test; details: pre; sprayed onto soil, 800 g of active material per hectare; evaluated 3 weeks after treatment
Description: as §1, §2, §3, §4, §5, §6

Matricaria inodora [12] = experiment: Herbicidal activity, preemergence test; details: pre; sprayed onto soil, 800 g of active material per hectare; evaluated 3 weeks after treatment
Description: as §1, §2, §3, §4, §5, §6

Papaver rhoeas [13] = experiment: Herbicidal activity, preemergence test; details: pre; sprayed onto soil, 800 g of active material per hectare; evaluated 3 weeks after treatment
Description: as §1, §2, §3, §4, §5, §6

Setaria viridis [14] = experiment: Herbicidal activity, preemergence test; details: pre; sprayed onto soil, 800 g of active material per hectare; evaluated 3 weeks after treatment
Description: as §1, §2, §3, §4, §5, §6

Stellaria media [15] = experiment: Herbicidal activity, preemergence test; details: pre; sprayed onto soil, 800 g of active material per hectare; evaluated 3 weeks after treatment
Description: as §1, §2, §3, §4, §5, §6

Triticum aestivum [16] = experiment: Herbicidal activity, preemergence test; details: pre; sprayed onto soil, 800 g of active material per hectare; evaluated 3 weeks after treatment
Description: as §1, §2, §3, §4, §5, §6

Veronica persica [17] = experiment: Herbicidal activity, preemergence test; details: pre; sprayed onto soil, 800 g of active material per hectare; evaluated 3 weeks after treatment
Description: as §1, §2, §3, §4, §5, §6

Zea mays [18] = experiment: Herbicidal activity, preemergence test; details: pre; sprayed onto soil, 800 g of active material per hectare; evaluated 3 weeks after treatment
Description: as §1, §2, §3, §4, §5, §6

Abutilon theophrasti [19] = experiment: Herbicidal activity, postemergence test; details: post; sprayed onto seedling plants, 800 g of active material per hectare; evaluated 2 weeks after treatment
Description: as §1, §2, §3, §4, §5, §6

Alopecurus myosuroides [20] = experiment: Herbicidal activity, postemergence test; details: post; sprayed onto seedling plants, 800 g of active material per hectare; evaluated 2 weeks after treatment
Description: as §1, §2, §3, §4, §5, §6

Amaranthus retroflexus [21] = experiment: Herbicidal activity, postemergence test; details: post; sprayed onto seedling plants, 800 g of active material per hectare; evaluated 2 weeks after treatment
Description: as §1, §2, §3, §4, §5, §6

Ambrosia artemisifolia [22] = experiment: Herbicidal activity, postemergence test; details: post; sprayed onto seedling plants, 800 g of active material per hectare; evaluated 2 weeks after treatment
Description: as §1, §2, §3, §4, §5, §6

Chenopodium album [23] = experiment: Herbicidal activity, postemergence test; details: post; sprayed onto seedling plants, 800 g of active material per hectare; evaluated 2 weeks after treatment
Description: as §1, §2, §3, §4, §5, §6

Galium aparine [24] = experiment: Herbicidal activity, postemergence test; details: post; sprayed onto seedling plants, 800 g of active material per hectare; evaluated 2 weeks after treatment
Description: as §1, §2, §3, §4, §5, §6

Glycine max [25] = experiment: Herbicidal activity, postemergence test; details: post; sprayed onto seedling plants, 800 g of active material per hectare; evaluated 2 weeks after treatment
Description: as §1, §2, §3, §4, §5, §6

Gossypium hirsutum [26] = experiment: Herbicidal activity, postemergence test; details: post; sprayed onto seedling plants, 800 g of active material per hectare; evaluated 2 weeks after treatment
Description: as §1, §2, §3, §4, §5, §6

Hordeum vulgare [27] = experiment: Herbicidal activity, postemergence test; details: post; sprayed onto seedling plants, 800 g of active material per hectare; evaluated 2 weeks after treatment
Description: as §1, §2, §3, §4, §5, §6

Ipomoea hederacea [28] = experiment: Herbicidal activity, postemergence test; details: post; sprayed onto seedling plants, 800 g of active material per hectare; evaluated 2 weeks after treatment
Description: as §1, §2, §3, §4, §5, §6

Lamium purpureum [29] = experiment: Herbicidal activity, postemergence test; details: post; sprayed onto seedling plants, 800 g of active material per hectare; evaluated 2 weeks after treatment
Description: as §1, §2, §3, §4, §5, §6

Matricaria inodora [30] = experiment: Herbicidal activity, postemergence test; details: post; sprayed onto seedling plants, 800 g of active material per hectare; evaluated 2 weeks after treatment
Description: as §1, §2, §3, §4, §5, §6

Papaver rhoeas [31] = experiment: Herbicidal activity, postemergence test; details: post; sprayed onto seedling plants, 800 g of active material per hectare; evaluated 2 weeks after treatment
Description: as §1, §2, §3, §4, §5, §6

Setaria viridis [32] = experiment: Herbicidal activity, postemergence test; details: post; sprayed onto seedling plants, 800 g of active material per hectare; evaluated 2 weeks after treatment
Description: as §1, §2, §3, §4, §5, §6

Stellaria media [33] = experiment: Herbicidal activity, postemergence test; details: post; sprayed onto seedling plants, 800 g of active material per hectare; evaluated 2 weeks after treatment
Description: as §1, §2, §3, §4, §5, §6

Triticum aestivum [34] = experiment: Herbicidal activity, postemergence test; details: post; sprayed onto seedling plants, 800 g of active material per hectare; evaluated 2 weeks after treatment
Description: as §1, §2, §3, §4, §5, §6

Veronica persica [35] = experiment: Herbicidal activity, postemergence test; details: post; sprayed onto seedling plants, 800 g of active material per hectare; evaluated 2 weeks after treatment
Description: as §1, §2, §3, §4, §5, §6

Zea mays [36] = experiment: Herbicidal activity, postemergence test; details: post; sprayed onto seedling plants, 800 g of active material per hectare; evaluated 2 weeks after treatment
Description: as §1, §2, §3, §4, §5, §6

Compound | ABUTH control rating (0-9) (Abutilon theophrasti [1]) | ALOMY control rating (0-9) (Alopecurus myosuroides [2]) | AMARE control rating (0-9) (Amaranthus retroflexus [3]) | AMBEL control rating (0-9) (Ambrosia artemisifolia [4]) | CHEAL control rating (0-9) (Chenopodium album [5]) | GALAP control rating (0-9) (Galium aparine [6]) | GLXMA control rating (0-9) (Glycine max [7]) | GOSHI control rating (0-9) (Gossypium hirsutum [8]) | HORVW control rating (0-9) (Hordeum vulgare [9]) | IPOHE control rating (0-9) (Ipomoea hederacea [10]) | LAMPU control rating (0-9) (Lamium purpureum [11]) | MATIN control rating (0-9) (Matricaria inodora [12]) | PAPRH control rating (0-9) (Papaver rhoeas [13]) | SETVI control rating (0-9) (Setaria viridis [14]) | STEME control rating (0-9) (Stellaria media [15]) | TRZAW control rating (0-9) (Triticum aestivum [16]) | VERPE control rating (0-9) (Veronica persica [17]) | ZEAMX control rating (0-9) (Zea mays [18]) | ABUTH control rating (0-9) (Abutilon theophrasti [19]) | ALOMY control rating (0-9) (Alopecurus myosuroides [20]) | also measured
O=C(NCc1cccs1)c1nnc(-c2ccc(F)cc2)o1 [Example 8] | 0 (no effect) | 0 (no effect) | 9 (complete kill) | 3 (moderate effect) | 5 (definite injury) | 0 (no effect) | 2 (slight effect) | 2 (slight effect) | 0 (no effect) | 0 (no effect) | 0 (no effect) | 5 (definite injury) | 9 (complete kill) | 3 (moderate effect) | 7 (good herbicidal effect) | 0 (no effect) | 7 (good herbicidal effect) | 2 (slight effect) | 3 (moderate effect) | 0 (no effect) | AMARE control rating (0-9) (Amaranthus retroflexus [21]): 8 (approaching complete kill); AMBEL control rating (0-9) (Ambrosia artemisifolia [22]): 3 (moderate effect); CHEAL control rating (0-9) (Chenopodium album [23]): 4 (injury); GALAP control rating (0-9) (Galium aparine [24]): 0 (no effect); GLXMA control rating (0-9) (Glycine max [25]): 0 (no effect); GOSHI control rating (0-9) (Gossypium hirsutum [26]): 0 (no effect); HORVW control rating (0-9) (Hordeum vulgare [27]): 0 (no effect); IPOHE control rating (0-9) (Ipomoea hederacea [28]): 0 (no effect); LAMPU control rating (0-9) (Lamium purpureum [29]): 0 (no effect); MATIN control rating (0-9) (Matricaria inodora [30]): 2 (slight effect); PAPRH control rating (0-9) (Papaver rhoeas [31]): 3 (moderate effect); SETVI control rating (0-9) (Setaria viridis [32]): 0 (no effect); STEME control rating (0-9) (Stellaria media [33]): 5 (definite injury); TRZAW control rating (0-9) (Triticum aestivum [34]): 0 (no effect); VERPE control rating (0-9) (Veronica persica [35]): 4 (injury); ZEAMX control rating (0-9) (Zea mays [36]): 0 (no effect)
O=C(NCc1ccccc1)c1nnc(-c2ccc(F)cc2)o1 [Example 9] | 0 (no effect) | 0 (no effect) | 0 (no effect) | 0 (no effect) | 0 (no effect) | 0 (no effect) | 1 (trace effect) | 0 (no effect) | 0 (no effect) | 0 (no effect) | 0 (no effect) | 0 (no effect) | 6 (herbicidal effect) | 3 (moderate effect) | 0 (no effect) | 0 (no effect) | 7 (good herbicidal effect) | 0 (no effect) | 3 (moderate effect) | 0 (no effect) | AMARE control rating (0-9) (Amaranthus retroflexus [21]): 0 (no effect); AMBEL control rating (0-9) (Ambrosia artemisifolia [22]): 0 (no effect); CHEAL control rating (0-9) (Chenopodium album [23]): 0 (no effect); GALAP control rating (0-9) (Galium aparine [24]): 0 (no effect); GLXMA control rating (0-9) (Glycine max [25]): 0 (no effect); GOSHI control rating (0-9) (Gossypium hirsutum [26]): 0 (no effect); HORVW control rating (0-9) (Hordeum vulgare [27]): 0 (no effect); IPOHE control rating (0-9) (Ipomoea hederacea [28]): 0 (no effect); LAMPU control rating (0-9) (Lamium purpureum [29]): 0 (no effect); MATIN control rating (0-9) (Matricaria inodora [30]): 0 (no effect); PAPRH control rating (0-9) (Papaver rhoeas [31]): 0 (no effect); SETVI control rating (0-9) (Setaria viridis [32]): 0 (no effect); STEME control rating (0-9) (Stellaria media [33]): 0 (no effect); TRZAW control rating (0-9) (Triticum aestivum [34]): 0 (no effect); VERPE control rating (0-9) (Veronica persica [35]): 0 (no effect); ZEAMX control rating (0-9) (Zea mays [36]): 0 (no effect)
